# Data published in ChEMBL document CHEMBL1201862, “PubChem BioAssay data set” (2004).
# Active and inactive are the calls of the source. For most assays here, no stated cut-off is given here; in the data, actives have a measured EC50 and inactives only a lower limit.
# Key:
# Streptokinase A = target: T1, Streptokinase A (Streptococcus pyogenes serotype M1, UniProt P10520); assay: viability-normalized secreted streptokinase activity reduction – plasminogen activation absorbance, OD405, dose response (AID 1914); format: functional, Streptococcus pyogenes M1 GAS;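 further: secreted streptokinase activity via plasminogen activation per viability signal from cell pellet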
# T1 sequence (P10520 whole entry): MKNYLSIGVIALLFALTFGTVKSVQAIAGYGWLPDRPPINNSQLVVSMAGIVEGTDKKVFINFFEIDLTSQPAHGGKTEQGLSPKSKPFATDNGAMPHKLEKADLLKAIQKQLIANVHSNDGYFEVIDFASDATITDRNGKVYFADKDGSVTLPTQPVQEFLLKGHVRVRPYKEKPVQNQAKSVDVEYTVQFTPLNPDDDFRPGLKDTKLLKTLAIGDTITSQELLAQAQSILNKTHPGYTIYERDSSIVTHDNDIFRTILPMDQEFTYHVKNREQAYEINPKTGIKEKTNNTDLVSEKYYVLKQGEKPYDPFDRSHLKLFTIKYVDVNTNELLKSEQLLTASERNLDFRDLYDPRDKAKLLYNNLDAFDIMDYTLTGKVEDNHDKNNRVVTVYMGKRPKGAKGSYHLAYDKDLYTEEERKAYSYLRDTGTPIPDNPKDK
# Streptococcus = assay: GAS UMAA2166 growth inhibition – luminescence, BacTiterGlo, counter-screen for streptokinase expression inhibitor project, dose response (AID 1915); format: functional, organism-based;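 further: potency for reduction of bacterial viability or growth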
# [1] = test system: Streptococcus sp. 'group A'; assay: Streptococcus pyogenes SK(-)GAS viability under kanamycin – luminescence, BacTiterGlo, confirmation, counter-screen for streptokinase expression inhibitor project, dose response (AID 1900); format: functional, organism-based
# Paired box protein Pax-8 = Paired box protein Pax-8 (Homo sapiens, UniProt Q06710); assay: PAX8 transcriptional activity inhibition in RMG-I – RMG-I cells, luciferase, cherry-pick, dose response (AID 687027); format: functional, cell-based;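 further: luciferase reporter driven by Pax8 target thyroperoxidase promoter measured by SteadyGlo luminescence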
# [2] = viability of uninfected HEp-2 cells – cell-based, HTS, cytotoxicity control for RSV inhibitor project, dose response (AID 2410); format: functional; conditions: human respiratory syncytial virus
# Cytochrome P450 2D6 = Cytochrome P450 2D6 (Homo sapiens, UniProt P10635);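 further: CYP2D6 member of a cytochrome P450 panel assay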
# [3] = target: T2, Heat shock factor protein 1 (Mus musculus, UniProt P38532); assay: decrease of HSF1-responsive luciferase luminescence – cell-based, NIH3T3, dose retest, confirmation (AID 2382); format: functional;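 further: NIH3T3 fibroblasts with HSF1-driven luciferase reporter stressed by proteasome inhibitor MG132; luminescence from HSF1-driven luciferase expression after 8 hours of MG132 stress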
# T2 sequence (P38532 whole entry): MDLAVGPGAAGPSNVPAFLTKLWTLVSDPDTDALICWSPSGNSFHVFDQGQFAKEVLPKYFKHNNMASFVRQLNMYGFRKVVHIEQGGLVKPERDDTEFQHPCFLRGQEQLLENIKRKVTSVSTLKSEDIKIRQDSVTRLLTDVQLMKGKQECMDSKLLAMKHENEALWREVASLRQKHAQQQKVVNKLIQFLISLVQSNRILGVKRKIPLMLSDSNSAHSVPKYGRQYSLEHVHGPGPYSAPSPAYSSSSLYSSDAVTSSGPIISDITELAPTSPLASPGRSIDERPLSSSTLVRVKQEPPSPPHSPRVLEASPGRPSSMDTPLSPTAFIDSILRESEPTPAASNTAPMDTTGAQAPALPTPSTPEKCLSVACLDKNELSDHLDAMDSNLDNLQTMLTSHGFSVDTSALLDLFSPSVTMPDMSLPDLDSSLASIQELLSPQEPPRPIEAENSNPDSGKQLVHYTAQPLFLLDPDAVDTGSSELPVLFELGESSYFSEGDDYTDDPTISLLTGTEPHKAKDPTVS
# [4] = Luminescence Cell-Based Dose Response HTS to Identify Activators of Luciferase Translation or Activity in H4 […] Cells. [Related pubchem assays: 1829 (Project Summary), 1814 (Primary HTS)]; format: functional
# H4 = assay: Luminescence Cell-Based Dose Response HTS to Identify Activators of 5'UTR Stem-Loop Driven Prion Protein mRNA Translation in H4 Neuroglioblastoma Cells. [Related pubchem assays: 1829 (Project Summary), 1814 (Primary HTS)]; format: functional; conditions: Homo sapiens
# [5] = Luminescence Cell-Based Dose Confirmation HTS to Identify Activators of 5'UTR Stem-Loop Driven Alpha-Synuclein mRNA Translation in H4 Neuroglioblastoma Cells. [Related pubchem assays: 1829 (Project Summary), 1814 (Primary HTS)]; format: functional
# Cytochrome P450 2C9 = Cytochrome P450 2C9 (Homo sapiens, UniProt P11712)
# Cytochrome P450 1A2 = target: T3, Cytochrome P450 1A2 (Homo sapiens, UniProt P05177);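 further: PubChem cytochrome P450 panel assay, CYP1A2 panel member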
# T3 sequence (P05177 whole entry): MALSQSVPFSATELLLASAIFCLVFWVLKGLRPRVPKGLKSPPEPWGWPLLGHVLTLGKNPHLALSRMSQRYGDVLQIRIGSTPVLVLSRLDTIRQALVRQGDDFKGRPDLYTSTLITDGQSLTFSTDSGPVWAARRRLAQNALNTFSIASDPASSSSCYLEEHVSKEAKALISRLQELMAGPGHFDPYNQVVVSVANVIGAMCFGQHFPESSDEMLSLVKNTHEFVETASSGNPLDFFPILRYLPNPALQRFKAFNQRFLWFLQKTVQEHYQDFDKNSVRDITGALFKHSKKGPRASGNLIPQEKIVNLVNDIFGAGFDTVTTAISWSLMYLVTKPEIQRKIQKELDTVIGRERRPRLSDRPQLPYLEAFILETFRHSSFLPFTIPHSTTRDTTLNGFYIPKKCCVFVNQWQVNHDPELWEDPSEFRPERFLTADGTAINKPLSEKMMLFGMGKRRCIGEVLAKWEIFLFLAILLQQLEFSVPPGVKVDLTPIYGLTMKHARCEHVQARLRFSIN
# [6] = fluconazole-exposed Candida albicans growth modulators – fluorescence, retest, confirmation (AID 2467); format: functional, cell-based
# [7] = NIH-3T3 fibroblast cytotoxicity, dose response, cytotoxicity control, cell-based, fluorescence, Alamar Blue, secondary assay (AID 2327); format: functional;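 further: NIH-3T3 mouse fibroblasts cultured with fluconazole at 8 µg/mL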
# [8] = Luminescence Cell-Based Dose Response HTS to Identify Inhibitors of 5'UTR Stem-Loop Driven Prion Protein mRNA Translation in H4 Neuroglioblastoma Cells. [Related pubchem assays: 1827 (Project Summary), 1813 (Primary HTS)]; format: functional
# [9] = alpha-synuclein stem-loop luciferase translation blockers – H4 neuroglioma cells, luminescence, confirmation (AID 1988); format: functional, cell-based
# [10] = luciferase reporter signal suppression in cells – H4 neuroglioma cells, luminescence, dose response (AID 1990); format: functional, cell-based
# Protein skinhead-1 = target: T4, Protein skinhead-1 (Caenorhabditis elegans, UniProt P34707); format: functional
# T4 sequence (P34707 whole entry): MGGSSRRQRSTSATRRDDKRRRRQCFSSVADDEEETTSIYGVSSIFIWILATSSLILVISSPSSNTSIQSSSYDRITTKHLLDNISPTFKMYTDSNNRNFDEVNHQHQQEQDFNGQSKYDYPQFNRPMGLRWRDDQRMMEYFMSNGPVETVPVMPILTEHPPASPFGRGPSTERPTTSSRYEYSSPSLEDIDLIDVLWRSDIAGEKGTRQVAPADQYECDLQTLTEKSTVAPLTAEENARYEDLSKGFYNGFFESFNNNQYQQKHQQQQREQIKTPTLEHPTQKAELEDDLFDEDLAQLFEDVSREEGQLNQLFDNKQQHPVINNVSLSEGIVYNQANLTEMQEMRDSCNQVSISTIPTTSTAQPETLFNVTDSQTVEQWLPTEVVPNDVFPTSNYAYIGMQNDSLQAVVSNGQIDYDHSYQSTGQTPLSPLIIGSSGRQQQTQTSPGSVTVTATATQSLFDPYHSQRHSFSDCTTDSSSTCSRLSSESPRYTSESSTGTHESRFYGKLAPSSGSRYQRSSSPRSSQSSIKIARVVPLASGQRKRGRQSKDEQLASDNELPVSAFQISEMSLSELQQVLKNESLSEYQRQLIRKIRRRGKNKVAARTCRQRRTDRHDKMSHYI
# Cytochrome P450 2D6, sequence (P10635 whole entry): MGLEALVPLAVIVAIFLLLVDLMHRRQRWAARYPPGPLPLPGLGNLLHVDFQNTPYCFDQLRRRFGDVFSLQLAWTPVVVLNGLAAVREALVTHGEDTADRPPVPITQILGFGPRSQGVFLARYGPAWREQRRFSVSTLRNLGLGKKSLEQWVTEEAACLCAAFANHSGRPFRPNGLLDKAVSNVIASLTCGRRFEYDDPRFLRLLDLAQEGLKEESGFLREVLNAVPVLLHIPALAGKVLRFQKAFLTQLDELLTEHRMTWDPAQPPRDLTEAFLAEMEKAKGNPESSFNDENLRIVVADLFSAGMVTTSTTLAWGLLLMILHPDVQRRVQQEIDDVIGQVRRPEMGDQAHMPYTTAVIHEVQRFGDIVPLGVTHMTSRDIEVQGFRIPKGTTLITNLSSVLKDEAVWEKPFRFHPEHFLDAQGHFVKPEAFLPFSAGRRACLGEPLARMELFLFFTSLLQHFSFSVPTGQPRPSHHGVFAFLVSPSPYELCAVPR
# Paired box protein Pax-8, sequence (Q06710 whole entry): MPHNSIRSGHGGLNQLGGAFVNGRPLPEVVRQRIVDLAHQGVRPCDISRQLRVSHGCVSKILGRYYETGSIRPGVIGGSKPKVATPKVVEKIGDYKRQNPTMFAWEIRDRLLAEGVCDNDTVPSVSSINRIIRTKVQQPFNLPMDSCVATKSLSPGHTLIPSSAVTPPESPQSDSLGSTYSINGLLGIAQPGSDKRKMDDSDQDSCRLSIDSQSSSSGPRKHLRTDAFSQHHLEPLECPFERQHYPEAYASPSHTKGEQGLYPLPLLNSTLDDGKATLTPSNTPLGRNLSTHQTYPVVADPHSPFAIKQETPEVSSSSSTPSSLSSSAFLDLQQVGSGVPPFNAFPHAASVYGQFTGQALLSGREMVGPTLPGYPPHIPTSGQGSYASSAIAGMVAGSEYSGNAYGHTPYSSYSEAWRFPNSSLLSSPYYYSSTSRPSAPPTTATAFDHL
# Cytochrome P450 2C9, sequence (P11712 whole entry): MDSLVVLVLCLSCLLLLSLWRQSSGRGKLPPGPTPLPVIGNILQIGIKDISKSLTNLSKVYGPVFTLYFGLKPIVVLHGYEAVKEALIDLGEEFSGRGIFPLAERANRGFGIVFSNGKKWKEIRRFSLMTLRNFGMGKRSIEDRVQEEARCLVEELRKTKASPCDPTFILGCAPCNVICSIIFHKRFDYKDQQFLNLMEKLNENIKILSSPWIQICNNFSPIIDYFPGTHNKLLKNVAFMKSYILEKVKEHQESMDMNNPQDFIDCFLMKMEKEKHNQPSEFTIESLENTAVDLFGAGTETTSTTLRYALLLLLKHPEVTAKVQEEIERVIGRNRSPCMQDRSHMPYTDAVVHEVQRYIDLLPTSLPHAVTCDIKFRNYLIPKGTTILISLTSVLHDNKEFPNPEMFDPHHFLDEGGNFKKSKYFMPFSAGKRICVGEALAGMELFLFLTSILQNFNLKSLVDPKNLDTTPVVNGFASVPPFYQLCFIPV
structure (smiles),measurement,setting,value
CCOC(=O)c1cccnc1SCC(=O)NC(C)CC (stereo not drawn),EC50,Streptokinase A,> 150 µM (not active)
same,EC50,Streptococcus,> 150 µM (not active)
same,EC50,[1],> 150 µM (not active)
Cc1ccc(S(=O)(=O)N(C)C[C@H]2Oc3ccc(NC(=O)Cc4ccccc4)cc3C(=O)N([C@H](C)CO)C[C@@H]2C)cc1,AC50,Paired box protein Pax-8,29.8 µM (active)
"N=C(N)NC(=O)c1nc(Cl)c(N2CCCCCC2)nc1N [N,N-HEXAMETHYLENEAMILORIDE]",CC50,[2],10.5 µM (active)
same,AC50,Cytochrome P450 2D6,39.8 µM (inconclusive)
OCCN(Cc1ccccc1)Cc1cccc(Cl)c1Cl,EC50,[3],> 195 µM (not active)
same,AC50,Cytochrome P450 2D6,1.58 µM (inconclusive)
NNC(=O)c1ccc(OCC2CC(c3ccc(Cl)cc3)=NO2)cc1 (stereo not drawn),EC50,Streptokinase A,> 150 µM (not active)
same,EC50,Streptococcus,> 150 µM (not active)
same,EC50,[1],> 150 µM (not active)
CC(C)OC(=O)c1cccnc1N1CCN(c2cccc(Cl)c2)CC1,EC50,Streptokinase A,19.3 µM (active)
same,EC50,Streptococcus,> 150 µM (not active)
same,EC50,[1],20.3 µM (active)
C[C@@H]1CCCCO[C@H](CN(C)Cc2ccccc2)[C@H](C)CN([C@H](C)CO)C(=O)c2cc(NC(=O)Nc3ccc(C(F)(F)F)cc3)ccc2O1,AC50,Paired box protein Pax-8,5.05 µM (active)
CCCCCCN(C(=O)CCCN1C(=O)NC(c2ccc(-c3ccccc3)cc2)C(C(=O)OCc2ccccc2)=C1C)C(C)C(=O)NCCCC (stereo not drawn),AC50,Paired box protein Pax-8,12.2 µM (active)
Cc1nn(-c2ccccc2)c(Cl)c1/C=N\NC(=O)c1cnccn1,EC50,[4],14 µM (active)
same,EC50,H4,15.3 µM (active)
same,EC50,[5],23.6 µM (active)
N=C(c1ccc2ccccc2c1)c1ccccc1Cc1ccccc1,AC50,Cytochrome P450 2D6,3.16 µM (inconclusive)
same,AC50,Cytochrome P450 2C9,7.94 µM (inconclusive)
same,AC50,Cytochrome P450 1A2,0.501 µM (inconclusive)
COc1ccc(/C=C/C(=O)NC(=S)N2CCN(c3ccccc3OC)CC2)cc1,EC50,[4],> 120 µM (not active)
same,EC50,H4,7.91 µM (active)
same,EC50,Streptokinase A,> 150 µM (not active)
same,EC50,Streptococcus,> 150 µM (not active)
same,EC50,[5],1.67 µM (active)
same,EC50,[1],> 150 µM (not active)
COc1ccc(C(=O)C2CCCN(Cc3cccn3-c3ccccn3)C2)c(C)c1 (stereo not drawn),EC50,[6],0.706 µM (active)
same,EC50,[7],> 160 µM (inactive)
COc1ccc(/C=C/C(=O)NC(=S)NNC(=O)Cc2cccs2)cc1,EC50,Streptokinase A,> 150 µM (not active)
same,EC50,Streptococcus,20.9 µM (active)
same,EC50,[1],2.45 µM (active)
Cn1ccnc1CN1CCCCC1C(=O)Nc1ccc(Oc2cccnc2)cc1 (stereo not drawn),EC50,[4],> 120 µM (not active)
same,EC50,H4,> 120 µM (not active)
same,EC50,[5],> 120 µM (not active)
N#Cc1cc2cc3c(cc2nc1SCC(=O)N1CCOCC1)OCCO3,EC50,[8],> 120 µM (not active)
same,EC50,[9],5.54 µM (active)
Clc1ccccc1CNc1nc2ccccc2n2cnnc12,EC50,[10],14.2 µM (active)
same,EC50,[8],> 120 µM (not active)
same,EC50,[9],35.8 µM (active)
C/C(=N\NC(=O)c1cc2ccccc2cc1O)c1ccc2c(c1)OCO2,EC50,Streptokinase A,6.65 µM (active)
same,EC50,Streptococcus,21.9 µM (active)
same,EC50,[1],3.73 µM (active)
C=CCSc1ncc(-c2ccccc2)cn1,EC50,[4],16 µM (active)
same,IC50,Protein skinhead-1,11.4 µM (active)
same,EC50,H4,24.5 µM (active)
same,EC50,[5],25.3 µM (active)
Cc1ccc(S(=O)(=O)N/N=C2/CC(c3ccccc3)Oc3ccccc32)cc1[N+](=O)[O-] (stereo not drawn),EC50,[4],> 120 µM (not active)
same,EC50,H4,13.8 µM (active)
same,EC50,[5],15.9 µM (active)
C[C@@H]1CCCCO[C@@H](CN(C)Cc2ccc(Cl)c(Cl)c2)[C@H](C)CN([C@H](C)CO)C(=O)c2cc(NC(=O)Nc3ccc(C(F)(F)F)cc3)ccc2O1,AC50,Paired box protein Pax-8,2.39 µM (active)
CCOC(=O)c1cc2c(=O)n3ccccc3nc2n(CCOC)/c1=N\C(=O)c1ccncc1,EC50,[7],115 µM (active)
N#Cc1ccc2nc(-c3ccc(CN4CCC(n5c(O)nc6ccccc65)CC4)cc3)c(-c3ccccc3)nc2c1,AC50,Paired box protein Pax-8,8.95 µM (active)
O=C(COc1ccc(Cl)cc1)NC1CCSC1=O (stereo not drawn),EC50,[7],> 160 µM (inactive)
CC(/C=C1\SC(=O)N(CC(=O)Nc2ccc(O)cc2)C1=O)=C\c1ccccc1,EC50,Streptokinase A,> 150 µM (not active)
same,EC50,Streptococcus,31.1 µM (active)
same,AC50,Paired box protein Pax-8,64.3 µM (active)
same,EC50,[1],13.8 µM (active)
O=C(c1ccccc1)N1CCN2C(=O)c3ccccc3C12c1ccc(Cl)cc1 (stereo not drawn),EC50,[4],34.9 µM (active)
same,EC50,H4,15.4 µM (active)
same,EC50,[5],> 120 µM (not active)
Nc1n[nH]c(SCc2cccc(Br)c2)n1,EC50,[10],> 120 µM (not active)
same,EC50,[8],> 120 µM (not active)
same,EC50,[9],> 120 µM (not active)
COc1ccc(C(=O)Nc2ccc(-c3cn4ccsc4n3)cc2)cc1S(=O)(=O)N1CCOCC1,EC50,[10],> 120 µM (not active)
same,EC50,[8],> 120 µM (not active)
same,EC50,[9],60.6 µM (active)
COCCC/N=C(\c1ccco1)n1c(=S)nc(-c2ccco2)n(CCCOC)c1=S,EC50,[4],11.6 µM (active)
same,EC50,H4,> 120 µM (not active)
same,EC50,[5],11.9 µM (active)
Cc1[nH]c2ccccc2c1C(=O)/C=C/c1ccccc1Cl,EC50,H4,10.1 µM (active)
same,EC50,[5],7.39 µM (active)
